The results in this text go back to ChEMBL document CHEMBL1201862, “PubChem BioAssay data set” (2004).

Some test systems named below: A549; A498; LOX IMVI; CCRF-CEM; MOLT-4; NCI-H23; SK-OV-3; UACC-62; SK-MEL-5; SNB-19; HOP-62; OVCAR-8; UACC-257; ACHN; SW-620; 786-0; NCI-H226.
What all share (assay): DTP human tumour cell line panel, 48 h

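These data come from cells grown in 96-well plates and exposed to compound for 48 hours at five concentrations. Abbreviation: GI50, concentration required for 50% inhibition of growth.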 Calls of active or inactive are those of the source. Cut-off read from the data, not from the text of the source: active = GI50 up to about 1.1 µM and inactive = higher.

Turning to `CCOC(C)C(/C=N/NC(N)=S)=NNC(N)=S` (configuration not stated) [GLOXAZONE], the GI50 with A549 is > 100 µM (inactive); in the experiment on A498, 21.9 µM (inactive); with LOX IMVI it was > 100 µM (inactive); in the experiment on CCRF-CEM, < 0.0208 µM (active); with MOLT-4, < 0.0254 µM (active); with NCI-H23, > 100 µM (inactive). The GI50 is > 100 µM (inactive) in the experiment on SK-OV-3; > 100 µM (inactive) in the experiment on UACC-62; 48.3 µM (inactive) in the experiment on SK-MEL-5; > 100 µM (inactive) with SNB-19; > 100 µM (inactive) in the experiment on HOP-62; > 100 µM (inactive) with OVCAR-8. Besides, the GI50 with UACC-257 is < 0.0411 µM (active); in the experiment on ACHN, > 100 µM (inactive); in the experiment on SW-620 it was > 100 µM (inactive); with 786-0 it was > 100 µM (inactive).
Regarding `CSc1nnc(C(C#N)C#N)nn1`, the GI50 in the experiment on A549, with NCI-H226, in the experiment with A498, in the experiment on LOX IMVI, in the experiment on CCRF-CEM and in the experiment on MOLT-4 was > 100 µM (inactive) throughout. Further, the GI50 with NCI-H23, with SK-OV-3, with UACC-62, with SK-MEL-5, in the experiment on SNB-19 and in the experiment with HOP-62 was > 100 µM (inactive) in each case. Moreover, the GI50 in the experiment on OVCAR-8, in the experiment on UACC-257, in the experiment on SW-620 and in the experiment with 786-0 was > 100 µM (inactive) in each case.
Take `Cc1cc(=O)n(-c2ccccc2C)c(C)n1`: the GI50 in the experiment on A549, in the experiment with NCI-H226, in the experiment on A498, in the experiment on LOX IMVI, with CCRF-CEM and with MOLT-4 was > 100 µM (inactive) each time. Moreover, the GI50 in the experiment with NCI-H23, with SK-OV-3, in the experiment on UACC-62, with SK-MEL-5, in the experiment on SNB-19 and in the experiment on HOP-62 was > 100 µM (inactive) in each case. Moreover, the GI50 in the experiment with OVCAR-8, in the experiment with UACC-257, with ACHN, in the experiment with SW-620 and in the experiment with 786-0 was > 100 µM (inactive) throughout.
As to `CCCCOC(=O)C1C(c2ccc(Cl)cc2)NC(c2ccc(Cl)cc2)C(C(=O)OCCCC)S1(=O)=O` (configuration not stated), the GI50 with A549, in the experiment on NCI-H226, in the experiment on A498, with LOX IMVI, with CCRF-CEM and in the experiment on MOLT-4 was > 100 µM (inactive) throughout. For the same compound, the GI50 with NCI-H23, in the experiment with SK-OV-3, with UACC-62, in the experiment on SK-MEL-5, in the experiment on SNB-19 and with HOP-62 was > 100 µM (inactive) throughout. Further, the GI50 with OVCAR-8, in the experiment on UACC-257, with ACHN, with SW-620 and in the experiment with 786-0 was > 100 µM (inactive) each time.
`COc1ccc(N2C(=O)C3CC(c4ccc(C)cc4)c4c([nH]c5ccccc45)C3C2=O)cc1` (configuration not stated): the GI50 with A549 was 12.2 µM (inactive); in the experiment on NCI-H226, 9.53 µM (inactive); in the experiment with A498, 30.2 µM (inactive); in the experiment on LOX IMVI it was 6.92 µM (inactive); in the experiment on CCRF-CEM, 11 µM (inactive); in the experiment with MOLT-4, 21 µM (inactive). Also, the GI50 in the experiment with NCI-H23 is > 45.8 µM (inactive); in the experiment with SK-OV-3, 29.5 µM (inactive); in the experiment with UACC-62, > 100 µM (inactive); in the experiment on SK-MEL-5, 63.1 µM (inactive); with SNB-19 it was 12.4 µM (inactive); with HOP-62 it was 18.1 µM (inactive). Besides, the GI50 is 5.43 µM (inactive) in the experiment with OVCAR-8; > 100 µM (inactive) with UACC-257; 21.6 µM (inactive) in the experiment on ACHN; 6.22 µM (inactive) in the experiment on SW-620; 12.2 µM (inactive) with 786-0.
`NCC(NC(=O)OCc1ccccc1)C(=O)O` (configuration not stated): the GI50 with A549, in the experiment on NCI-H226, with A498, with LOX IMVI, with CCRF-CEM and in the experiment on MOLT-4 was > 50 µM (inactive) each time. The GI50 with NCI-H23, with SK-OV-3, in the experiment with UACC-62, in the experiment on SK-MEL-5, with SNB-19 and with HOP-62 was > 50 µM (inactive) each time. Further, the GI50 in the experiment on OVCAR-8, in the experiment on UACC-257, with ACHN, in the experiment on SW-620 and in the experiment on 786-0 was > 50 µM (inactive) each time.
For `COc1cc2oc(-c3ccccc3)cc(=O)c2c(O)c1C`, the GI50 in the experiment on A549, in the experiment on NCI-H226, in the experiment on A498, in the experiment with LOX IMVI, in the experiment with CCRF-CEM and with MOLT-4 was > 100 µM (inactive) each time. Further, the GI50 with NCI-H23, with SK-OV-3, in the experiment on UACC-62, with SK-MEL-5, in the experiment on HOP-62 and in the experiment on OVCAR-8 was > 100 µM (inactive) throughout. The GI50 in the experiment with UACC-257, with ACHN, with SW-620 and in the experiment on 786-0 was > 100 µM (inactive) each time.
`CN1NC2(CCCCC2)ON=C1c1ccccc1`: the GI50 with A549, with NCI-H226, in the experiment with A498, in the experiment with LOX IMVI, with CCRF-CEM and with MOLT-4 was > 100 µM (inactive) in each case. Moreover, the GI50 in the experiment on NCI-H23, with SK-OV-3, with UACC-62, in the experiment with SK-MEL-5, in the experiment on SNB-19 and with HOP-62 was > 100 µM (inactive) in each case. Besides, the GI50 in the experiment on OVCAR-8, in the experiment on UACC-257, with ACHN, in the experiment with SW-620 and in the experiment with 786-0 was > 100 µM (inactive) throughout.
Consider `CC(=O)Nc1ccc(C(=O)NN2C(=O)C(Cl)C2c2ccccc2O)cc1` (configuration not stated), for which the GI50 with A549 is > 100 µM (inactive); with NCI-H226, > 100 µM (inactive); with A498 it was > 100 µM (inactive); in the experiment with LOX IMVI, 13.2 µM (inactive); in the experiment on CCRF-CEM it was 4.9 µM (inactive); in the experiment with NCI-H23, 19.7 µM (inactive). Moreover, the GI50 is 12.9 µM (inactive) with SK-OV-3; 37.2 µM (inactive) in the experiment on UACC-62; > 100 µM (inactive) with SK-MEL-5; 36.6 µM (inactive) with SNB-19; 14.2 µM (inactive) in the experiment on HOP-62; 42.2 µM (inactive) in the experiment with OVCAR-8. The GI50 was > 100 µM (inactive) with UACC-257, > 100 µM (inactive) in the experiment with ACHN, > 100 µM (inactive) with SW-620 and 9.06 µM (inactive) with 786-0.
`Cc1ccc(S(=O)(=O)C(CC(NC=O)S(=O)(=O)c2ccc(C)cc2)NC=O)cc1` (configuration not stated): the GI50 with A549 was > 100 µM (inactive); with NCI-H226, > 100 µM (inactive); in the experiment on A498 it was > 100 µM (inactive); in the experiment on LOX IMVI it was > 100 µM (inactive); with CCRF-CEM, 62.4 µM (inactive); in the experiment with MOLT-4, > 100 µM (inactive). The GI50 in the experiment on NCI-H23, with SK-OV-3, in the experiment with UACC-62, in the experiment with SK-MEL-5, with SNB-19 and in the experiment on HOP-62 was > 100 µM (inactive) each time. Besides, the GI50 in the experiment with OVCAR-8, in the experiment with UACC-257, in the experiment with SW-620 and in the experiment on 786-0 was > 100 µM (inactive) in each case.
For the compound `Cc1ccc(-c2cc(=O)c3cc(C)c(C)c(C(=O)O)c3o2)cc1`, the GI50 with A549, in the experiment with A498, with LOX IMVI, in the experiment on CCRF-CEM, in the experiment on MOLT-4 and in the experiment on NCI-H23 was > 100 µM (inactive) each time. The GI50 in the experiment on SK-OV-3, in the experiment on UACC-62, with SK-MEL-5, in the experiment with SNB-19, in the experiment on HOP-62 and in the experiment on OVCAR-8 was > 100 µM (inactive) throughout. The GI50 in the experiment on UACC-257, in the experiment with ACHN, with SW-620 and in the experiment with 786-0 was > 100 µM (inactive) in each case.
On to `Cc1ccccc1C1OC(=O)c2ccccc21` (configuration not stated), for which the GI50 with A549, with NCI-H226, in the experiment on A498, in the experiment with LOX IMVI, with CCRF-CEM and in the experiment with MOLT-4 was > 100 µM (inactive) each time. Besides, the GI50 in the experiment on NCI-H23 was > 100 µM (inactive); in the experiment on SK-OV-3, > 100 µM (inactive); with UACC-62, 56.1 µM (inactive); in the experiment with SK-MEL-5, > 100 µM (inactive); in the experiment on SNB-19, > 100 µM (inactive); in the experiment with HOP-62, > 100 µM (inactive). The GI50 is 83.8 µM (inactive) with OVCAR-8, > 100 µM (inactive) in the experiment on ACHN, > 100 µM (inactive) in the experiment on SW-620 and > 100 µM (inactive) with 786-0.

A word on the GI50: it is the concentration at which growth is held to half of that of the control.
